Source: ChEMBL document CHEMBL3885881, “DrugMatrix”

Species: Rattus norvegicus
Assay: DrugMatrix - Regimen: Daily Repeat
Type: toxicity, organism-based, Sprague-Dawley
Design: regimen Daily Repeat, gender Male, age 6-8 weeks
Settings: in vivo, po, route oral GAVAGE, dose level High; for ABSOLUTE BASOPHIL / ABSOLUTE EOSINOPHIL / ABSOLUTE LYMPHOCYTE / ABSOLUTE MONOCYTE / ABSOLUTE SEGMENTED NEUTROPHIL / BASOPHIL / EOSINOPHIL / ERYTHROCYTE COUNT / HEMATOCRIT / HEMOGLOBIN / LEUKOCYTE COUNT / LYMPHOCYTE / MEAN CORPUSCULAR HEMOGLOBIN / MEAN CORPUSCULAR HEMOGLOBIN CONCENTRATION / MEAN CORPUSCULAR VOLUME / MONOCYTE / NEUTROPHIL / NUCLEATED RED BLOOD CELLS / PLATELET COUNT: tissue Blood; for ALANINE AMINOTRANSFERASE / ALBUMIN / ALKALINE PHOSPHATASE / ASPARTATE AMINOTRANSFERASE / BLOOD UREA NITROGEN / CARBON DIOXIDE / CHLORIDE / CHOLESTEROL / CREATINE PHOSPHOKINASE / CREATININE / GLUCOSE / LACTATE DEHYDROGENASE / LIPASE / PHOSPHORUS / POTASSIUM / SODIUM / TOTAL BILIRUBIN / TOTAL PROTEIN / URIC ACID: tissue Plasma
[1] = 1500 mg/kg, 72 h, time 3 day, vehicle .5 % CMC
[2] = 1500 mg/kg, 120 h, time 5 day, vehicle .5 % CMC
[3] = 20 mg/kg, 72 h, time 3 day, vehicle 100 % WATER
[4] = 20 mg/kg, 120 h, time 5 day, vehicle 100 % WATER
[5] = 20 mg/kg, […], time 14 day, vehicle 100 % WATER

O=C(N[C@H](CO)[C@H](O)c1ccc([N+](=O)[O-])cc1)C(Cl)Cl [CHLORAMPHENICOL]
ABSOLUTE BASOPHIL [1]: 0 CELLS/uL
ABSOLUTE EOSINOPHIL [1]: 0 CELLS/uL
ABSOLUTE LYMPHOCYTE [1]: 14694 CELLS/uL
ABSOLUTE MONOCYTE [1]: 312.67 CELLS/uL
ABSOLUTE SEGMENTED NEUTROPHIL [1]: 793.33 CELLS/uL
BASOPHIL [1]: 0%
EOSINOPHIL [1]: 0%
ERYTHROCYTE COUNT [1]: 5.41 x10E6/uL
HEMATOCRIT [1]: 34.37%
HEMOGLOBIN [1]: 13.67 G/DL
LEUKOCYTE COUNT [1]: 15.8 x10E3/uL
LYMPHOCYTE [1]: 93%
MEAN CORPUSCULAR HEMOGLOBIN [1]: 25.33 pg
MEAN CORPUSCULAR HEMOGLOBIN CONCENTRATION [1]: 39.83 G/DL
MEAN CORPUSCULAR VOLUME [1]: 63.63 fL
MONOCYTE [1]: 2%
NEUTROPHIL [1]: 5%
NUCLEATED RED BLOOD CELLS [1]: 0 /100WBC
PLATELET COUNT [1]: 1264 x10E3/uL
ALANINE AMINOTRANSFERASE [1]: 78 u/L
ALBUMIN [1]: 4.33 G/DL
ALKALINE PHOSPHATASE [1]: 347 u/L
ASPARTATE AMINOTRANSFERASE [1]: 90.33 u/L
BLOOD UREA NITROGEN [1]: 15.67 mg/dL
CARBON DIOXIDE [1]: 37.67 mmol/L
CHLORIDE [1]: 101.33 MEQ/L
CHOLESTEROL [1]: 63 mg/dL
CREATINE PHOSPHOKINASE [1]: 530 u/L
CREATININE [1]: 0.15 mg/dL
GLUCOSE [1]: 150 mg/dL
LACTATE DEHYDROGENASE [1]: 92.67 u/L
LIPASE [1]: 9.33 u/L
PHOSPHORUS [1]: 10.53 mg/dL
POTASSIUM [1]: 6.53 MEQ/L
SODIUM [1]: 143.67 MEQ/L
TOTAL BILIRUBIN [1]: 0.13 mg/dL
TOTAL PROTEIN [1]: 5.6 G/DL
URIC ACID [1]: 1.4 mg/dL
ABSOLUTE BASOPHIL [2]: 0 CELLS/uL
ABSOLUTE EOSINOPHIL [2]: 0 CELLS/uL
ABSOLUTE LYMPHOCYTE [2]: 13927 CELLS/uL
ABSOLUTE MONOCYTE [2]: 280 CELLS/uL
ABSOLUTE SEGMENTED NEUTROPHIL [2]: 1126.33 CELLS/uL
BASOPHIL [2]: 0%
EOSINOPHIL [2]: 0%
ERYTHROCYTE COUNT [2]: 5.7 x10E6/uL
HEMATOCRIT [2]: 35.27%
HEMOGLOBIN [2]: 14.27 G/DL
LEUKOCYTE COUNT [2]: 15.33 x10E3/uL
LYMPHOCYTE [2]: 90.67%
MEAN CORPUSCULAR HEMOGLOBIN [2]: 25.07 pg
MEAN CORPUSCULAR HEMOGLOBIN CONCENTRATION [2]: 40.5 G/DL
MEAN CORPUSCULAR VOLUME [2]: 61.9 fL
MONOCYTE [2]: 2%
NEUTROPHIL [2]: 7.33%
NUCLEATED RED BLOOD CELLS [2]: 0.33 /100WBC
PLATELET COUNT [2]: 1090 x10E3/uL
ALANINE AMINOTRANSFERASE [2]: 63 u/L
ALBUMIN [2]: 4.13 G/DL
ALKALINE PHOSPHATASE [2]: 266.33 u/L
ASPARTATE AMINOTRANSFERASE [2]: 100.33 u/L
BLOOD UREA NITROGEN [2]: 22.33 mg/dL
CARBON DIOXIDE [2]: 35 mmol/L
CHLORIDE [2]: 103 MEQ/L
CHOLESTEROL [2]: 56 mg/dL
CREATINE PHOSPHOKINASE [2]: 359.67 u/L
CREATININE [2]: 0.2 mg/dL
GLUCOSE [2]: 144 mg/dL
LACTATE DEHYDROGENASE [2]: 180 u/L
LIPASE [2]: 8.67 u/L
PHOSPHORUS [2]: 9.33 mg/dL
POTASSIUM [2]: 9.76 MEQ/L
SODIUM [2]: 143.67 MEQ/L
TOTAL BILIRUBIN [2]: 0.17 mg/dL
TOTAL PROTEIN [2]: 5.23 G/DL
URIC ACID [2]: 1.3 mg/dL

C=CC=O [ACROLEIN]
BASOPHIL [3]: 0.17%
EOSINOPHIL [3]: 1.23%
ERYTHROCYTE COUNT [3]: 6.79 x10E6/uL
HEMATOCRIT [3]: 44.43%
HEMOGLOBIN [3]: 14.33 G/DL
LEUKOCYTE COUNT [3]: 13.23 x10E3/uL
LYMPHOCYTE [3]: 50.33%
MEAN CORPUSCULAR HEMOGLOBIN [3]: 21.17 pg
MEAN CORPUSCULAR HEMOGLOBIN CONCENTRATION [3]: 32.27 G/DL
MEAN CORPUSCULAR VOLUME [3]: 65.47 fL
MONOCYTE [3]: 5.93%
NEUTROPHIL [3]: 40.03%
PLATELET COUNT [3]: 1336 x10E3/uL
ALANINE AMINOTRANSFERASE [3]: 33.67 u/L
ALBUMIN [3]: 3.47 G/DL
ALKALINE PHOSPHATASE [3]: 159 u/L
ASPARTATE AMINOTRANSFERASE [3]: 72.67 u/L
BLOOD UREA NITROGEN [3]: 13 mg/dL
CARBON DIOXIDE [3]: 27.67 mmol/L
CHLORIDE [3]: 105.67 MEQ/L
CHOLESTEROL [3]: 122.33 mg/dL
CREATINE PHOSPHOKINASE [3]: 216.67 u/L
CREATININE [3]: 0.43 mg/dL
GLUCOSE [3]: 151.67 mg/dL
LACTATE DEHYDROGENASE [3]: 35 u/L
LIPASE [3]: 24.33 u/L
PHOSPHORUS [3]: 11.6 mg/dL
POTASSIUM [3]: 5.87 MEQ/L
SODIUM [3]: 148 MEQ/L
TOTAL BILIRUBIN [3]: 0.27 mg/dL
TOTAL PROTEIN [3]: 5.43 G/DL
URIC ACID [3]: 1.27 mg/dL
BASOPHIL [4]: 0.23%
EOSINOPHIL [4]: 0.37%
ERYTHROCYTE COUNT [4]: 7 x10E6/uL
HEMATOCRIT [4]: 45.17%
HEMOGLOBIN [4]: 14.17 G/DL
LEUKOCYTE COUNT [4]: 18.4 x10E3/uL
LYMPHOCYTE [4]: 56.63%
MEAN CORPUSCULAR HEMOGLOBIN [4]: 20.2 pg
MEAN CORPUSCULAR HEMOGLOBIN CONCENTRATION [4]: 31.37 G/DL
MEAN CORPUSCULAR VOLUME [4]: 64.53 fL
MONOCYTE [4]: 5.23%
NEUTROPHIL [4]: 35.47%
PLATELET COUNT [4]: 1464.67 x10E3/uL
ALANINE AMINOTRANSFERASE [4]: 36.33 u/L
ALBUMIN [4]: 3.33 G/DL
ALKALINE PHOSPHATASE [4]: 202.33 u/L
ASPARTATE AMINOTRANSFERASE [4]: 71 u/L
BLOOD UREA NITROGEN [4]: 15 mg/dL
CARBON DIOXIDE [4]: 23.67 mmol/L
CHLORIDE [4]: 110.33 MEQ/L
CHOLESTEROL [4]: 106 mg/dL
CREATINE PHOSPHOKINASE [4]: 207.67 u/L
CREATININE [4]: 0.27 mg/dL
GLUCOSE [4]: 140 mg/dL
LACTATE DEHYDROGENASE [4]: 58 u/L
LIPASE [4]: 40.33 u/L
PHOSPHORUS [4]: 11.4 mg/dL
POTASSIUM [4]: 5.6 MEQ/L
SODIUM [4]: 152.33 MEQ/L
TOTAL BILIRUBIN [4]: 0.23 mg/dL
TOTAL PROTEIN [4]: 5.37 G/DL
URIC ACID [4]: 1.73 mg/dL
BASOPHIL [5]: 0.9%
EOSINOPHIL [5]: 0.5%
ERYTHROCYTE COUNT [5]: 7.34 x10E6/uL
HEMATOCRIT [5]: 43.1%
HEMOGLOBIN [5]: 14.5 G/DL
LEUKOCYTE COUNT [5]: 33.86 x10E3/uL
LYMPHOCYTE [5]: 32.7%
MEAN CORPUSCULAR HEMOGLOBIN [5]: 19.8 pg
MEAN CORPUSCULAR HEMOGLOBIN CONCENTRATION [5]: 33.6 G/DL
MEAN CORPUSCULAR VOLUME [5]: 58.8 fL
MONOCYTE [5]: 5.2%
NEUTROPHIL [5]: 59.1%
PLATELET COUNT [5]: 2095 x10E3/uL
ALANINE AMINOTRANSFERASE [5]: 40 u/L
ALBUMIN [5]: 3.6 G/DL
ALKALINE PHOSPHATASE [5]: 220 u/L
ASPARTATE AMINOTRANSFERASE [5]: 68 u/L
BLOOD UREA NITROGEN [5]: 13 mg/dL
CARBON DIOXIDE [5]: 31 mmol/L
CHLORIDE [5]: 101 MEQ/L
CHOLESTEROL [5]: 116 mg/dL
CREATINE PHOSPHOKINASE [5]: 267 u/L
CREATININE [5]: 0.4 mg/dL
GLUCOSE [5]: 145 mg/dL
LACTATE DEHYDROGENASE [5]: 109 u/L
LIPASE [5]: 33 u/L
PHOSPHORUS [5]: 9.2 mg/dL
POTASSIUM [5]: 6.6 MEQ/L
SODIUM [5]: 147 MEQ/L
TOTAL BILIRUBIN [5]: 0.5 mg/dL
TOTAL PROTEIN [5]: 5.7 G/DL
URIC ACID [5]: 2.5 mg/dL
